In patent publication US10167297B2, “Substituted pyridine compounds having herbicidal activity” (BASF SE, priority 2014, dated 2019):

How the values were obtained:
Type in all cases: in vivo
Zea mays = assay: greenhouse post-emergence herbicidal activity on crop plant corn (use examples); details: ZEAMX (corn, crop plant), scale 0 to 100; for plant injury at 125 g/ha: 0.125 kg/ha; for plant injury at 31 g/ha: 0.031 kg/ha; for plant injury at 250 g/ha: 0.25 kg/ha
Text: (§1) The seeds of the test plants were sown separately for each species. For the pre-emergence treatment, the active ingredients, which had been suspended or emulsified in water, were applied directly after sowing by means of finely distributing nozzles. The containers were irrigated gently to promote germination and growth and subsequently covered with transparent plastic hoods until the plants had rooted. This cover caused uniform germination of the test plants, unless this had been impaired by the active ingredients. For the post-emergence treatment, the test plants were first grown to a height of 3 to 15 cm, depending on the plant habit, and only then treated with the active ingredients which had been suspended or emulsified in water. For this purpose, the test plants were either sown directly and grown in the same containers, or they were first grown separately as seedlings and transplanted into the test containers a few days prior to treatment. Depending on the species, the plants were kept at 10-25° C. or 20-35° C., respectively. The test period extended over 2 to 4 weeks. During this time, the plants were tended, and their response to the individual treatments was evaluated. Evaluation was carried out using a scale from 0 to 100. 100 means no emergence of the plants, or complete destruction of at least the aerial moieties, and 0 means no damage, or normal course of growth. A good herbicidal activity is given at values of at least 70 and a very good herbicidal activity is given at values of at least 85. The plants used in the greenhouse experiments were of the following species: [table]

Setaria viridis = assay: greenhouse post-emergence herbicidal activity (use examples); details: SETVI, scale 0 to 100
Text: as §1

Amaranthus retroflexus = assay: as above; details: AMARE, scale 0 to 100
Text: as §1

Echinocloa crus-galli = assay: as above; details: Echinochloa crus-galli, ECHCG, scale 0 to 100; for pest or weed control at 125 g/ha: 0.125 kg/ha; for pest or weed control at 31 g/ha: 0.031 kg/ha; for pest or weed control at 250 g/ha: 0.25 kg/ha
Text: as §1

Chenopodium album = assay: as above; details: CHEAL, scale 0 to 100
Text: as §1

SMILES: CC(=O)N(C)c1c(Cl)ccc(C2=C(OC(=O)C(C)(C)C)c3ncc(F)cc3C(C)(C)S2(=O)=O)c1Cl [Compound I-13, [7-[3-[acetyl(methyl)amino]-2,4-dichloro-phenyl]-3-fluoro-5,5-dimethyl-6,6-dioxo-thiopyrano[4,3-b]pyridin-8-yl] 2,2-dimethylpropanoate]
- plant injury at 125 g/ha (Zea mays): 15%
- Herbicidal activity (Setaria viridis; 0.125 kg/ha): 85
- Herbicidal activity (Amaranthus retroflexus; 0.125 kg/ha): 90
- pest or weed control at 125 g/ha (Echinocloa crus-galli): 95%

SMILES: CC(=O)N(C)c1c(Cl)ccc(C2=C(O)c3ncccc3C(C)(C)S2(=O)=O)c1Cl [Compound I-6, N-[2,6-dichloro-3-(8-hydroxy-5,5-dimethyl-6,6-dioxo-thiopyrano[4,3-b]pyridin-7-yl)phenyl]-N-methyl-acetamide]
- plant injury at 60 g/ha (Zea mays; 0.060 kg/ha): 30%
- Herbicidal activity (Setaria viridis; 0.060 kg/ha): 90
- pest or weed control at 60 g/ha (Echinocloa crus-galli; 0.060 kg/ha): 90%

SMILES: CC(=O)N(C)c1c(Cl)ccc(C2=C(OC(=O)C(C)(C)C)c3ncccc3C(C)(C)S2(=O)=O)c1Cl [Compound I-8, [7-[3-[acetyl(methyl)amino]-2,4-dichloro-phenyl]-5,5-dimethyl-6,6-dioxo-thiopyrano[4,3-b]pyridin-8-yl] 2,2-dimethylpropanoate]
- plant injury at 125 g/ha (Zea mays): 30%
- Herbicidal activity (Amaranthus retroflexus; 0.125 kg/ha): 98
- pest or weed control at 125 g/ha (Echinocloa crus-galli): 98%
- Herbicidal activity (Chenopodium album; 0.125 kg/ha): 100

SMILES: CC(=O)N(C)c1c(Cl)ccc(C2=C(OC(=O)C(C)(C)C)c3ncc(F)cc3CS2(=O)=O)c1Cl [Compound I-12, [7-[3-[acetyl(methyl)amino]-2,4-dichloro-phenyl]-3-fluoro-6,6-dioxo-5H-thiopyrano[4,3-b]pyridin-8-yl] 2,2-dimethylpropanoate]
- plant injury at 31 g/ha (Zea mays): 15%
- Herbicidal activity (Setaria viridis; 0.031 kg/ha): 75
- pest or weed control at 31 g/ha (Echinocloa crus-galli): 85%
- Herbicidal activity (Chenopodium album; 0.031 kg/ha): 90

SMILES: CC(=O)N(C)c1c(Cl)ccc(C2=C(O)c3ncc(F)cc3CS2(=O)=O)c1Cl [Compound I-11, N-[2,6-dichloro-3-(3-fluoro-8-hydroxy-6,6-dioxo-5H-thiopyrano[4,3-b]pyridin-7-yl)phenyl]-N-methyl-acetamide]
- plant injury at 31 g/ha (Zea mays): 15%
- Herbicidal activity (Setaria viridis; 0.031 kg/ha): 90
- pest or weed control at 31 g/ha (Echinocloa crus-galli): 90%
- Herbicidal activity (Chenopodium album; 0.031 kg/ha): 90

SMILES: CC(=O)N(C)c1c(Cl)ccc(C2=C(O)c3ncc(F)cc3C(C)(C)S2(=O)=O)c1Cl [Compound I-14, N-[2,6-dichloro-3-(3-fluoro-8-hydroxy-5,5-dimethyl-6,6-dioxo-thiopyrano[4,3-b]pyridin-7-yl)phenyl]-N-methyl-acetamide]
- plant injury at 125 g/ha (Zea mays): 30%
- Herbicidal activity (Setaria viridis; 0.125 kg/ha): 100
- Herbicidal activity (Amaranthus retroflexus; 0.125 kg/ha): 98
- pest or weed control at 125 g/ha (Echinocloa crus-galli): 98%

SMILES: O=C1CCCN1c1c(Cl)ccc(C2=C(O)c3ncccc3CS2(=O)=O)c1Cl [Compound I-1, 1-[2,6-dichloro-3-(8-hydroxy-6,6-dioxo-5H-thiopyrano[4,3-b]pyridin-7-yl)phenyl]pyrrolidin-2-one]
- plant injury at 250 g/ha (Zea mays): 0%
- Herbicidal activity (Amaranthus retroflexus; 0.25 kg/ha): 100
- pest or weed control at 250 g/ha (Echinocloa crus-galli): 100%
- Herbicidal activity (Chenopodium album; 0.25 kg/ha): 100

SMILES: CC(=O)N(C)c1c(Cl)ccc(C2=C(OC(=O)C(C)(C)C)c3ncccc3CS2(=O)=O)c1Cl [Compound I-7, [7-[3-[acetyl(methyl)amino]-2,4-dichloro-phenyl]-6,6-dioxo-5H-thiopyrano[4,3-b]pyridin-8-yl] 2,2-dimethylpropanoate]
- plant injury at 250 g/ha (Zea mays): 20%
- Herbicidal activity (Amaranthus retroflexus; 0.25 kg/ha): 95
- pest or weed control at 250 g/ha (Echinocloa crus-galli): 98%
- Herbicidal activity (Chenopodium album; 0.25 kg/ha): 100
